Test results from US4301065A, “Novel polypeptides having thymic activity or an antagonistic activity and processes for their synthesis” (Agence Nationale de Valorisation de la Recherche (ANVAR), priority 1977, dated 1981).
Converted amounts (≈) assume the structure as drawn. Square brackets hold non-standard residues; d marks the D form. Ends that are not written are not given here. Peptide text beside a SMILES is read from it. pGlu = O=C1CC[C@@H](C(=O)O)N1; βAla = NCCC(=O)O

Key:
thymectomised mice [1] = test: Kinetics of the activity in the serum after injection of peptide without carboxymethyl cellulose; type: in vivo; details: 1 ng of polypeptide injected into thymectomised mice; active serum dilutions against time; FIGS. 1 to 3
Source text: These kinetics have also been established for active products, but without any delay action, by way of comparison. The results of these tests have been established in the form of curves in FIGS. 1, 2 and 3 of the accompanying drawings.

[2] = system: cells of the spleen forming rosettes (RFC); test: Rosette test in vitro (thymic activity); type: cell-based, adult C 57/B1 6 mice; details: for Activity in the rosette test (control peptides): in vitro, control peptides of similar molecular weight
Description: The thymic activity of the polypeptide is established by incubation in a hemolysis tube with 3×10^6 cells of the spleen originating from adult C 57/B1 6 mice (supplied by the Centre d'Elevage des Animaux de Laboratoire of C.N.R.S. (45 Orleans, La Source), thymectomised 10 to 20 days previously. The thymectomy method is described by M. Dardenne and J. F. Bach in Immunology, 25, 343 (1973) on page 344. The contents of this article are incorporated herein by reference.
The incubation is carried out for 90 minutes at 37° C. in the presence of azathioprine (Az) at a concentration of 10 μg/ml.
On completion of the incubation, 12×10^6 red cells from sheep's blood (SRBC) are added to the cells in the test specimen. The cells in the specimen are centrifuged for 6 minutes at 200 g and carefully brought gently into suspension by rotation on a roller (diameter 10 cm) at a low speed (10 r.p.m.). The RFC are counted in a hematocytometer.
(1) Activity in vitro in the rosette test.

antibodies = test: Bonding with the antibodies; type: binding; set-up: key: +: the peptide is bonded; -: is not bonded to the antibodies
Source text: The suitability of the peptides for being bonded to the antibodies is indicated by the + and - symbols, which respectively signify that the peptide is bonded or is not bonded to the antibodies.

thymectomised mice [3] = test: Activity in vivo: study of the serum after injection of peptide absorbed on carboxymethyl cellulose
Description: The peptides active in vitro were also checked in tests carried out in vivo. Injected into 6 weeks old thymectomised mice and used 8 weeks after the thymectomy, the peptides produce the appearance at the 15th minute in the serum of a biological activity conferring the sensitivity to the azothioprine of the spleen cells forming rosettes. […] (2) Activity in vivo (study of the serum 2 hours and 4 hours after injection into thymectomised mice in different quantities (0.1, 1 or 10 ng) of peptide absorbed on carboxymethyl cellulose). The results of the tests in vivo on the serum and on the spleen, set out in Tables II, III and IV, were established by the procedure as previously indicated.

[4] = system: rosette-forming cells of the spleen of thymectomised mice; test: Test in vivo on the spleen: correction of the reactivity of rosette-forming spleen cells to azathioprine; details: Table IV, quantity injected 0,1 ng, individual values
Description: (3) Correction of the abnormal reactivity of the cells forming the rosettes of the spleen with azathioprine in thymectomised mice 24 hours after injecting the peptide (0.1, 1 and 10 ng) bonded to the carboxymethyl cellulose.
The tests on the spleen were carried out by determining the quantity of azathioprine which is necessary for inhibiting the rosette-forming cells of the spleen of thymectomised mice after an established time (24 hours and possibly also 48 hours) after the injection of an established quantity of polypeptide (0.1, 1 or 10 ng).

CC(=O)NCCCC[C@H](NC(=O)[C@H](C)NC(=O)[C@@H]1CCC(=O)N1)C(=O)N[C@@H](CO)C(=O)N[C@@H](CCC(N)=O)C(=O)NCC(=O)NCC(=O)N[C@@H](CO)C(=O)N[C@@H](CC(N)=O)C(=O)O [Peptide 62, PyroGlu-Ala-Lys(Ac)-Ser-Gln-Gly-Gly-Ser-Asn] ([pGlu]AK(Ac)SQGGSN-OH)
Time of the activity peak in the serum after injection (thymectomised mice [1]): ~45 min

C[C@H](NC(=O)[C@@H]1CCC(=O)N1)C(=O)N[C@@H](CCCCN)C(=O)N[C@@H](CO)C(=O)N[C@@H](CCC(N)=O)C(=O)NCC(=O)NCC(=O)N[C@@H](CO)C(=O)NCCC(N)=O [Peptide 86, PyroGlu-Ala-Lys-Ser-Gln-Gly-Gly-Ser-β-Ala-NH2] ([pGlu]AKSQGGS[βAla]-NH2)
Activity in vitro ([2]; Table I, rosette test): + (active)
Active concentration (ng/ml) (test in vitro) ([2]; Table III, rosette test, azathioprine 10 μg/ml, 90 minutes at 37° C.): 7.10^-3 ng/ml
Bonding with the antibodies (antibodies; Table I): -
Bonding with the antibodies (antibodies; Table IV): -
Activity in vivo (thymectomised mice [3]; Table I, thymectomised mice): + (active)
Active or inactive polypeptide (conclusion from Tables I to IV) (thymectomised mice [3]; overall judgement of the tests in vitro and in vivo): active
Spleens (test in vivo) 24 hours after injection: Quantity of azathioprine [4]: 12 µg

C[C@H](NC(=O)[C@@H]1CCC(=O)N1)C(=O)N[C@@H](CCCCN)C(=O)N[C@@H](CO)C(=O)N[C@@H](CCC(N)=O)C(=O)N[C@H](C)C(=O)NCC(=O)N[C@@H](CO)C(=O)N[C@@H](CC(N)=O)C(=O)O [Peptide 89, PyroGlu-Ala-Lys-Ser-Gln-D-Ala-Gly-Ser-Asn] ([pGlu]AKSQ[dA]GSN-OH)
Time of the activity peak in the serum after injection (thymectomised mice [1]): ~60 min

Cn1cnc([N+](=O)[O-])c1Sc1ncnc2nc[nH]c12 [azathioprine]
IC50 ([2]; Mus musculus, spleen cells coming from normal mice, read-out: minimal concentration of Az inhibiting 50% of the cells of the spleen forming rosettes (RFC)): 1 µg/mL (≈ 3.61 µM)

angiotensine
Activity in the rosette test (control peptides) [2]: inactive

substance P (RPKPQQFFGLM; ends and bridges not checked; UniProt P20366 58-68, looked up) [control peptide of similar molecular weight]
Activity in the rosette test (control peptides) [2]: inactive
